Test results taken from PubChem BioAssay AID1259407 (Chemical Carcinogenesis Research Information System (CCRIS), 2018).
The source made the active and inactive calls. How the calls were made is not given here.

Tested on: CCRIS mutagenicity, Ames/micronucleus/aberration tests
Assay: CCRIS mutagenicity studies
[1] = Test System: AMES SALMONELLA TYPHIMURIUM, Strain/Indicator: TA98, Metabolic Activation: NONE, Method: STANDARD PLATE
[2] = Test System: AMES SALMONELLA TYPHIMURIUM, Strain/Indicator: TA100, Metabolic Activation: NONE, Method: STANDARD PLATE
[3] = Test System: AMES SALMONELLA TYPHIMURIUM, Strain/Indicator: TA98, Metabolic Activation: NONE, Method: PREINCUBATION
[4] = Test System: AMES SALMONELLA TYPHIMURIUM, Strain/Indicator: TA100, Metabolic Activation: NONE, Method: PREINCUBATION

C[As+](C)(C)CC(=O)[O-]
mutagenic call (Test System: AMES SALMONELLA TYPHIMURIUM, Strain/Indicator: TA97, Metabolic Activation: NONE): inactive; negative
mutagenic call (Test System: AMES SALMONELLA TYPHIMURIUM, Strain/Indicator: TA97, Metabolic Activation: RAT, GUT-FLORA EXTRACT): inactive; negative
mutagenic call (Test System: AMES SALMONELLA TYPHIMURIUM, Strain/Indicator: TA97, Metabolic Activation: RAT, LIVER, S-9, AROCLOR 1254): inactive; negative
mutagenic call (Test System: AMES SALMONELLA TYPHIMURIUM, Strain/Indicator: TA98, Metabolic Activation: NONE): inactive; negative
mutagenic call (Test System: AMES SALMONELLA TYPHIMURIUM, Strain/Indicator: TA98, Metabolic Activation: RAT, GUT-FLORA EXTRACT): inactive; negative
mutagenic call (Test System: AMES SALMONELLA TYPHIMURIUM, Strain/Indicator: TA98, Metabolic Activation: RAT, LIVER, S-9, AROCLOR 1254): inactive; negative
mutagenic call (Test System: AMES SALMONELLA TYPHIMURIUM, Strain/Indicator: TA100, Metabolic Activation: NONE): inactive; negative
mutagenic call (Test System: AMES SALMONELLA TYPHIMURIUM, Strain/Indicator: TA100, Metabolic Activation: RAT, GUT-FLORA EXTRACT): inactive; negative
mutagenic call (Test System: AMES SALMONELLA TYPHIMURIUM, Strain/Indicator: TA100, Metabolic Activation: RAT, LIVER, S-9, AROCLOR 1254): inactive; negative
mutagenic call (Test System: CHINESE HAMSTER V-79, Strain/Indicator: V-79/6-THIOGUANINE (HGPRT), Metabolic Activation: NONE, Method: SUSPENSION/PLATE): inactive; negative
mutagenic call (Test System: CHINESE HAMSTER V-79, Strain/Indicator: V-79/6-THIOGUANINE (HGPRT), Metabolic Activation: RAT, LIVER, S-9, AROCLOR 1254, Method: SUSPENSION/PLATE): inactive; negative
mutagenic call (Test System: Mouse lymphoma, Strain/Indicator: L5178Y (TK+/TK-), Metabolic Activation: None, Method: Microwell): inactive; negative

C=CCN(CC=C)CCN(CC=C)CC=C.[Cl-].[Cl-].[Pd+2]
mutagenic call (Test System: AMES SALMONELLA TYPHIMURIUM, Strain/Indicator: TA92, Metabolic Activation: NONE, Method: STANDARD PLATE): inactive; negative
mutagenic call [1]: inactive; negative
mutagenic call [2]: inactive; negative
mutagenic call (Test System: AMES SALMONELLA TYPHIMURIUM, Strain/Indicator: TA2410, Metabolic Activation: NONE, Method: STANDARD PLATE): inactive; negative
mutagenic call (Test System: E. COLI, Strain/Indicator: TM6, Metabolic Activation: NONE, Method: STANDARD PLATE): active; positive
mutagenic call (Test System: E. COLI, Strain/Indicator: TM9, Metabolic Activation: NONE, Method: STANDARD PLATE): active; positive

O=S(=O)(O)Oc1ccc2cc3ccc4cccc5ccc(c2c1)c3c45
mutagenic call [3]: inactive; negative
mutagenic call (Test System: AMES SALMONELLA TYPHIMURIUM, Strain/Indicator: TA98, Metabolic Activation: RAT, LUNG, S-9, Method: PREINCUBATION): inactive; negative

O=[N+]([O-])c1ccc2c(ccc3cc([N+](=O)[O-])ccc32)c1
mutagenic call (Test System: AMES SALMONELLA TYPHIMURIUM, Strain/Indicator: TA98(1,8-DNP6), Metabolic Activation: NONE, Method: STANDARD PLATE): active; positive
mutagenic call (Test System: AMES SALMONELLA TYPHIMURIUM, Strain/Indicator: TA98(NR), Metabolic Activation: NONE, Method: STANDARD PLATE): active; positive
mutagenic call [3]: active; positive
mutagenic call [1]: active; positive
mutagenic call (Test System: AMES SALMONELLA TYPHIMURIUM, Strain/Indicator: TA98, Metabolic Activation: RAT, LIVER, S-9, PCB (10%), Method: PREINCUBATION): inactive; negative
mutagenic call (Test System: AMES SALMONELLA TYPHIMURIUM, Strain/Indicator: TA7001, Metabolic Activation: NONE, Method: PREINCUBATION): active; positive
mutagenic call (Test System: AMES SALMONELLA TYPHIMURIUM, Strain/Indicator: TA7002, Metabolic Activation: NONE, Method: PREINCUBATION): active; positive
mutagenic call (Test System: AMES SALMONELLA TYPHIMURIUM, Strain/Indicator: TA7003, Metabolic Activation: NONE, Method: PREINCUBATION): active; positive
mutagenic call (Test System: AMES SALMONELLA TYPHIMURIUM, Strain/Indicator: TA7004, Metabolic Activation: NONE, Method: PREINCUBATION): active; positive
mutagenic call (Test System: AMES SALMONELLA TYPHIMURIUM, Strain/Indicator: TA7005, Metabolic Activation: NONE, Method: PREINCUBATION): active; positive
mutagenic call (Test System: AMES SALMONELLA TYPHIMURIUM, Strain/Indicator: TA7006, Metabolic Activation: NONE, Method: PREINCUBATION): active; positive

CN1CCc2cc3c(c4c2[C@H]1Cc1ccccc1-4)OCO3
mutagenic call (Test System: AMES SALMONELLA TYPHIMURIUM, Strain/Indicator: TA98, Metabolic Activation: RAT, LIVER, S-9, PHENOBARBITAL AND BETA-NAPHTHOFLAVONE, Method: PREINCUBATION): active; positive
mutagenic call (Test System: AMES SALMONELLA TYPHIMURIUM, Strain/Indicator: TA100, Metabolic Activation: RAT, LIVER, S-9, PHENOBARBITAL AND BETA-NAPHTHOFLAVONE, Method: PREINCUBATION): active; positive

[Br][Pt-2]([Br])([Br])([Br])([Br])[Br]
mutagenic call [3]: inactive; negative
mutagenic call (Test System: AMES SALMONELLA TYPHIMURIUM, Strain/Indicator: TA98, Metabolic Activation: RAT, LIVER, S-9, AROCLOR 1254, Method: PREINCUBATION): inactive; negative
mutagenic call [4]: inactive; negative
mutagenic call (Test System: AMES SALMONELLA TYPHIMURIUM, Strain/Indicator: TA100, Metabolic Activation: RAT, LIVER, S-9, AROCLOR 1254, Method: PREINCUBATION): inactive; negative

O=[N+]([O-])c1ccc(Br)cc1
mutagenic call (End Point: IN VITRO CHROMOSOMAL ABERRATIONS, Test System: HUMAN PERIPHERAL LYMPHOCYTES, Metabolic Activation: NONE): inactive; negative
mutagenic call [3]: inactive; negative
mutagenic call (Test System: AMES SALMONELLA TYPHIMURIUM, Strain/Indicator: TA98, Metabolic Activation: RAT, LIVER, S-9, KANECHLOR 500, Method: PREINCUBATION): inactive; negative
mutagenic call [4]: inactive; negative
mutagenic call (Test System: AMES SALMONELLA TYPHIMURIUM, Strain/Indicator: TA100, Metabolic Activation: RAT, LIVER, S-9, KANECHLOR 500, Method: PREINCUBATION): active; positive

CCN(CCCl)c1ccc(CCCNc2c3ccccc3nc3ccccc23)cc1
mutagenic call (Test System: AMES SALMONELLA TYPHIMURIUM, Strain/Indicator: DG1588, Metabolic Activation: NONE, Method: STANDARD PLATE): inactive; negative
mutagenic call (Test System: AMES SALMONELLA TYPHIMURIUM, Strain/Indicator: DG1592, Metabolic Activation: NONE, Method: STANDARD PLATE): inactive; negative
mutagenic call (Test System: AMES SALMONELLA TYPHIMURIUM, Strain/Indicator: DG1593, Metabolic Activation: NONE, Method: STANDARD PLATE): active; positive
mutagenic call [1]: active; positive
mutagenic call [2]: active; positive
mutagenic call (Test System: AMES SALMONELLA TYPHIMURIUM, Strain/Indicator: TA102, Metabolic Activation: NONE, Method: STANDARD PLATE): inactive; negative
mutagenic call (Test System: AMES SALMONELLA TYPHIMURIUM, Strain/Indicator: TA104, Metabolic Activation: NONE, Method: STANDARD PLATE): active; positive
mutagenic call (Test System: AMES SALMONELLA TYPHIMURIUM, Strain/Indicator: TA1535, Metabolic Activation: NONE, Method: STANDARD PLATE): inactive; negative
mutagenic call (Test System: AMES SALMONELLA TYPHIMURIUM, Strain/Indicator: TA1537 (PKM101), Metabolic Activation: NONE, Method: STANDARD PLATE): active; positive
mutagenic call (Test System: AMES SALMONELLA TYPHIMURIUM, Strain/Indicator: TA1537, Metabolic Activation: NONE, Method: STANDARD PLATE): active; positive
mutagenic call (Test System: AMES SALMONELLA TYPHIMURIUM, Strain/Indicator: TA1538, Metabolic Activation: NONE, Method: STANDARD PLATE): inactive; negative
mutagenic call (Test System: AMES SALMONELLA TYPHIMURIUM, Strain/Indicator: TA1975 (PKM101), Metabolic Activation: NONE, Method: STANDARD PLATE): inactive; negative
mutagenic call (Test System: AMES SALMONELLA TYPHIMURIUM, Strain/Indicator: TA1975, Metabolic Activation: NONE, Method: STANDARD PLATE): inactive; negative
mutagenic call (Test System: AMES SALMONELLA TYPHIMURIUM, Strain/Indicator: TA1977, Metabolic Activation: NONE, Method: STANDARD PLATE): active; positive
mutagenic call (Test System: AMES SALMONELLA TYPHIMURIUM, Strain/Indicator: TA1978 (PKM101), Metabolic Activation: NONE, Method: STANDARD PLATE): active; positive
mutagenic call (Test System: AMES SALMONELLA TYPHIMURIUM, Strain/Indicator: TA1978, Metabolic Activation: NONE, Method: STANDARD PLATE): inactive; negative
mutagenic call (Test System: AMES SALMONELLA TYPHIMURIUM, Strain/Indicator: TA4001, Metabolic Activation: NONE, Method: STANDARD PLATE): active; positive
mutagenic call (Test System: AMES SALMONELLA TYPHIMURIUM, Strain/Indicator: TA4006, Metabolic Activation: NONE, Method: STANDARD PLATE): active; positive
